Reference: US7019000B1, “Method of treating a disease condition caused or exacerbated by an HPV” (Institute of Molecular & Cell Biology, priority 1998, dated 2006)

How the values were obtained:
[1] = molecular target: T1, HPV-16-E6 (recombinant GST-E6 protein) (Human papillomavirus type 16, UniProt P03126); assay: biochemical; type: biochemical
T1 construct: The full length HPV16 E6 gene was amplified via polymerase chain reaction and cloned in the vector pGeX4T2; made in house; host or cells: E. coli strain AB1899
From the text: Where the chelated metal is zinc, zinc release can be measured as an increase in the fluorescence of the zinc-selective fluorophore TSQ (N-(6-methoxy-8-quinolyl)-p-toluenesulfonamide) (18) in the presence of the protein and the active compound (TSQ assay).
In such an assay, the increase in fluorescence measured can be described as a percentage of the increase in fluorescence observed for a positive control compound which provides 100% zinc release. A suitable positive control compound is H2O2. Preferred compounds which may be useful in the present invention are those which release at least 30% of the chelated zinc as measured by the TSQ assay. Particularly preferred compounds for use in the present invention are those which release at least 40% of the chelated zinc, more preferably at least 50%.
In earlier studies, reduced glutathione (GSH) was required to elute recombinant glutathione sulfhydryl transferase E6 (recombinant (GST-E6)) protein during the purification process. However, the reducing activity of the GSH sulfhydryl groups protected GST-E6 protein from the chemical attack by agents, such as the disulphide based organic compounds of Formula (I) and (II). […] Individual assays were done in the presence of 9 μg GST-E6 protein, corresponding to a concentration of 1 μM GST-E6 protein and 2 μM bound zinc, assuming the presence of two Zn ions per protein.
Release of zinc from HPV-16-E6 was monitored by the change in fluorescence of the zinc-selective fluorophore TSQ (N-6-methoxy-8-quinolyl)-p-toluenesulfonamide), (Molecular Probes, Eugene, Oreg.) by modification of published procedures (25, 26, 27). In a total reaction volume of 200 μl, 9 μg (1 μM) recombinant GST-E6 protein (corresponding to a concentration of 1 μM), bound to glutathione-sepharose beads, were incubated with 10 μM of each compound or 0.6% (170 mM) H2O2 in TSQ-assay buffer (10 mM sodium phosphate buffer pH7.0, 10% glycerol) for 2 hours at room temperature (200 μl total volume in 96-well plates). Immediately after addition of 100 μM TSQ, the increase in fluorescence was measured on a SLT Fluostar (355 nm excitation filter and 460 nm emission filter, Tecan, Salzburg).
Values given are % values of Zinc release. The relative fluorescence units (RFU) were normalized to the amount of zinc released by H2O2 (regarded as 100%). The concentration of compound used was 10 μM for C27–C35, 13 μM for C37–C83, H2O2 was used at 0.3% for C27–C35 and 0.2% for C37–C83.

[2] = molecular target: T2, binding of E6 with E6AP and E6BP (Human papillomavirus type 16, UniProt P03126); parameters: species or system HPV-16
T2 construct: The full length HPV16 E6 gene was amplified via polymerase chain reaction and cloned in the vector pGeX4T2; made in house; host or cells: E. coli strain AB1899
From the text: BIACORE allows real time analysis of bimolecular interactions without the need for isotopic or enzymatic labelling. BIACORE technology is based on the optical surface plasmon resonance (SPR), a technique that allows for detecting small changes in the refractive index on the surface of a thin gold film coated with a dextran matrix. Typically, one of the binding partners (termed the ligand) is covalently linked to the dextran matrix, while the other partner (termed the analyte) is introduced in a flow passing over the surface. The change in refractive index resulting from the interaction of the molecules is expressed in resonance units (RU): a SPR response of 1000 RU corresponds to a change of the surface concentration of the analyte of 1 ng protein/mm^2. GST-E6AP and GST-E6BP were used as ligands and GSTE6 was used as the analyte. […] Further controls included using the dextran matrix alone or GST as the ligand.
Binding of GST-E6 to GST-E6BP, GST-E6AP and GST was monitored by surface plasmon resonance (SPR) on a BIACORE 2000 machine (Biacore AB, Uppsala, Sweden). […] Typically 6000–10000 RU of GST, E6BP and E6AP were immobilized on three difference flowcells. Aliquots of purified HPV-16 GST-E6 (7 μM in 10 mM GSH, 50 mM Tris/PBS buffer, pH 8.2) were incubated with either 400 μM compound, or 5 mM EDTA, or 0.6% (170 mM) H2O2 for 2 hrs at room temperature. Then 10 μl of sample was injected at 1 μl/min over the three immobilized ligands using the sequential flow mode. The interactions between GST-E6 and ligands were monitored by the change of resonance signal in arbitrary units (RU).

[3] = system: SiHa, HeLa, 444 and HaCat cells; assay: Microscopic observation of cell viability (FIG. 4); type: cell-based, human; details: E6-dependent cells (SiHa and HeLa) vs E6-independent cells (444 and HaCat)
Method: FIG. 4 photographically depicts viability of SiHa, HeLa, 444 and HaCat cells when treated with C16 compound.
Cell viability and the cytotoxic specificity for a number of other compounds of Formula (I) and (II) were also determined.

[4] = system: HT3, MCF7, HaCat and HeLa-fibroblast hybrid cell line 444; assay: Cell viability (WST1 assay), HPV-negative cells and 444 hybrid; type: cell-based, human; details: treated 3 times in 3 days
From the text: All cell lines were obtained from the American Type Culture Collection (Manassas, Va.) unless otherwise noted. SiHa (human cervical epithelial tumor line, HPV16-positive), CaSki (human cervical epithelial tumor line, HPV16-positive), HaCat (immortalized human skin epithelial cell line, HPV-negative), HeLa (human cervical epithelial tumor line, HPV18-positive), 444 (hybrid of HeLa and fibroblast, HPV18-positive) obtained from Eric Stanbridge (Universitv of California, Irvine), MCF7 (human mammary epithelial tumor cell line, HPV-negative), HT3 (human cervical epithelial tumor cell line, HPV-negative) was obtained from the German Cancer Research Institute/DKFZ-Heidelberg, and HepG2, (human liver epithelial tumor cell line, HPV-negative), were grown in Dulbecco's modified Eagle medium (DMEM) supplemented with 10% fetal calf serum, 100 U penicillin and 1000 U streptomycin. Cells were allowed to attach to the surface of microwell dishes overnight and subsequently, incubated with medium containing the zinc ejecting compounds at the concentrations (10–100 μM). Viability of the cells was scored by measuring the absorption of the tetrazolium salt WST1 (Roche Molecular Biochemicals, Mannheim, Germany) in an Elisa-plate reader (Tecan, Salzburg, Austria) at a wavelength of 450 nm and a reference wavelength of 630 nm. […]

T1 sequence (P03126 whole entry): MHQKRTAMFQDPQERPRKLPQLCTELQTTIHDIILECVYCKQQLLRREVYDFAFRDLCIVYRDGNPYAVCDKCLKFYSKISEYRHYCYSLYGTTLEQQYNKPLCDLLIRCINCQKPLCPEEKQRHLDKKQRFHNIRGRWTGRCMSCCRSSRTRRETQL
T2 sequence (P03126 whole entry): as above

SMILES: C1CN(SSN2CCOCC2)CCO1 [Compound C16]
- zinc release in original TSQ assays ([1]; GSH present at 5–10 mM): capable of releasing zinc
- activation at 10 µM ([1]; read-out: TSQ % (% values of Zinc release)): 63.2%
- inhibitory activity for E6 binding to both E6BP and E6AP (BIACORE) [2]: inhibitory activity for E6 binding to both E6BP and E6AP
- BIACORE (E6BP/E6AP) ([2]; 400 μM compound, 2 hrs at room temperature, GST-E6 7 μM in 10 mM GSH): + (compound interferes in binding of E6 with E6AP and E6BP, binding is less than 50% of the corresponding E6-DMSO value.)
- microscopic observation of cells [3]: differential effect
- effect on cell viability [4]: little or no effect
